The test concerns the target Mdm2-VHL (Homo sapiens, UniProt P40337+Q00987). The test can be described thus: AlphaScreen ternary complex formation. The note with it: GST-MDM2 and HIS-VHL. It counts as binding. The text has this: A. Chemical structure of MDM2-PROTAC. B-C. MDM2:p53 and MDM2:VHL-HIF1α peptide binding inhibition determined by homogeneous time-resolved fluorescence (HTRF, triplicate, mean±SEM, B) and surface plasmon resonance (SPR, triplicate, mean±SD, C. Binding assays by the indicated compounds. Graphical data is representative of 3 separate experiments. D. AlphaScreen of ternary complex using GST-MDM2 and HIS-VHL; mean±SD. E-F. Western blot analysis for the proteins indicated following a dose-titration (E, 16 hr) and time course (F, 6 μM) with the PROTAC or vehicle control (DMSO, −) in MDA-MB-231 (p53-mutant) and MDA-MB-436 (p53-delete) cells. G-K. Western blot analysis for the proteins indicated following treatment with the MDM2-PROTAC and/or the neddylation activating enzyme inhibitor MLN4924 G.

Molecules are shown by their SMILES.

Sequence of Mdm2-VHL (Q00987 whole entry): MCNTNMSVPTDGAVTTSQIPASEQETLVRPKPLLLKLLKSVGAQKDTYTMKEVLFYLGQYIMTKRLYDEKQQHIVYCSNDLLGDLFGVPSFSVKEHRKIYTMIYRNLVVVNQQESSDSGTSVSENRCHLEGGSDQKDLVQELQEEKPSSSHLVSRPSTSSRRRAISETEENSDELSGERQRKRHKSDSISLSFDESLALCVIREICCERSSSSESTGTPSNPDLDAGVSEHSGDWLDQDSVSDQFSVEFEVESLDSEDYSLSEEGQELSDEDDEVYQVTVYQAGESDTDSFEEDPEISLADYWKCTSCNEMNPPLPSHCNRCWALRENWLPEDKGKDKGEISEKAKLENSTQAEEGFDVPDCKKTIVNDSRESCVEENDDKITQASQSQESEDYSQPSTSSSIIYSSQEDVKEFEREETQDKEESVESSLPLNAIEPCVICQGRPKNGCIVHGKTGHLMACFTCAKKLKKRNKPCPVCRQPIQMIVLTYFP
Sequence of Mdm2-VHL (P40337 whole entry): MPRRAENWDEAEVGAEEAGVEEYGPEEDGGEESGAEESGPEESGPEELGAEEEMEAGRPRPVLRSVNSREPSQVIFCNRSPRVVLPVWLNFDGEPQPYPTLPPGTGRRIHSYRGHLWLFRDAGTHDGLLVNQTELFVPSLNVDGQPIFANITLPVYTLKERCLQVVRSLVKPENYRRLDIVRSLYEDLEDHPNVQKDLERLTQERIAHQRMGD
Sequence of Mdm2-VHL (Q15370 whole entry partner): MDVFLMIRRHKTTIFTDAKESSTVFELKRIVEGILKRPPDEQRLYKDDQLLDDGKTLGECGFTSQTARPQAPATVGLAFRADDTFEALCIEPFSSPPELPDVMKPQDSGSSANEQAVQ
Sequence of Mdm2-VHL (Q15369 whole entry partner): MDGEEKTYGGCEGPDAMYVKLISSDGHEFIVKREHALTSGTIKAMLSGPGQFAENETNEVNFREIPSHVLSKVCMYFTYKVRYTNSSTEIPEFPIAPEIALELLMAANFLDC

With `CCOc1cc(C(C)(C)C)ccc1C1=N[C@](C)(c2ccc(Cl)cc2)[C@](C)(c2ccc(Cl)cc2)N1C(=O)N1CCN(CC(=O)NCCOCCOCCOCC(=O)N[C@H](C(=O)N2C[C@H](O)C[C@H]2C(=O)NCc2ccc(-c3scnc3C)cc2)C(C)(C)C)CC1` (racemic) [YX-02-030], the ternary complex formation entry was “efficiently form a ternary complex”.

For the origin of these results see US20260053931A1, “MDM2 TARGETING PROTACS” (THE WISTAR INSTITUTE OF ANATOMY AND BIOLOGY, priority 2023, published 2026).
